In paper PMC4980431, “Ctf4 Is a Hub in the Eukaryotic Replisome that Links Multiple CIP-Box Proteins to the CMG Helicase” (Molecular Cell, 2016):

Assays:
[1] = target: T1, Ctf4 471-927 (Ctf4CTD) (Saccharomyces cerevisiae, UniProt Q01454); conditions: isolated CIP-boxes; quoted in Discussion; ref Simon et al., 2014; read-out: affinity constant Kd; cited from earlier work
T1 sequence (Q01454 471-927): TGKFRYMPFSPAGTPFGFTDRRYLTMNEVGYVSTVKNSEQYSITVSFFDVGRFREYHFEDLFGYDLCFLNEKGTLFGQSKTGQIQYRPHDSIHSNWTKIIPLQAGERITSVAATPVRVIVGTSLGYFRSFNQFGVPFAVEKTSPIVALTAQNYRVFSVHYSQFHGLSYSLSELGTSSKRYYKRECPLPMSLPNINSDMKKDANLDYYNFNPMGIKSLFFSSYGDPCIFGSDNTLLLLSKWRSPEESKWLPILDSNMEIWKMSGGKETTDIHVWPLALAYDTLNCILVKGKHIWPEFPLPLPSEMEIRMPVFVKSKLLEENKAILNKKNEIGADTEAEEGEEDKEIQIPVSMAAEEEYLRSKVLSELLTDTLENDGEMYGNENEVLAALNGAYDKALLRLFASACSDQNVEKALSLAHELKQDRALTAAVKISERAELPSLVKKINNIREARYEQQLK
Text: The way that CIP-box proteins compete with each other for binding to Ctf4 remains an interesting issue for future investigation.

[2] = target: T1, Ctf4 471-927 (Ctf4CTD); assay: Fluorescence anisotropy, peptide binding to Ctf4 471-927; design: species or system budding yeast; conditions: 40 nM fluorescein-labeled Tof2 peptide, pH 7.2, 25°C, single measurement
Experimental: The lowest concentration of peptide at which the binding studies could be performed was determined via peptide calibration curves. Fluorescence anisotropy measurements were recorded in a PHERAstar Plus multi-detection plate reader (BMG Labtech) equipped with fluorescence polarization optic module (λex = 485 nm; λem = 520 nm) at 25°C. Each data point is the mean of 200 flashes/well. The voltage gain was set by adjusting the target mP values of fluorescein-labeled peptides relative to that of fluorescein (35 mP). Serial dilutions of Ctf4CTD were made in 20 mM HEPES (pH 7.2), 140 mM KCl, and 5% (w/v) glycerol in the presence of 40 nM (Sld5 and Tof2) or 50 nM (Dna2) fluorescein-labeled peptide. For Dna2 peptide, each data point is the mean of three independent experiments and curve fitting to the experimental data was performed in pro Fit 6.2 (QuantumSoft) using a Levenberg-Marquardt fitting algorithm in combination with a Gaussian error distribution analysis.

[3] = test system: Ctf4 471–927; assay: Native mass spectrometry; assay type: binding, budding yeast; conditions: for direct binding to Ctf4 (in words): 500 mM ammonium acetate, 5-fold or 10-fold molar excess of peptide, 100 μM protein, minimum 30 min
Experimental: In preparation for non-denaturing nano-electrospray ionization mass spectrometry (native mass spectrometry), Ctf4 471–927 was subjected to two successive rounds of buffer exchange into 500 mM ammonium acetate using illustra NAP-5 columns (GE Healthcare). Following buffer exchange, a 5-fold or 10-fold molar excess of Dna2 peptide 207- […] -223 or Tof2 peptide 497- […] -517 solubilized in 500 mM ammonium acetate was mixed with Ctf4CTD at a final protein concentration of 100 μM and incubated for a minimum of 30 min. Native mass spectra were recorded on a Synapt HDMS instrument (Waters) and calibrated using caesium iodide (100 mg ml^−1) as described previously ([Hernández and Robinson, 2007], [Simon et al., 2014]).

[4] = test system: Ctf4 471–927 (Ctf4CTD); assay: GST pull-down; assay type: binding, budding yeast; conditions: GST fusion on Glutathione Sepharose; Ctf4CTD 2 mg/ml, 1 hr 4°C; SDS-PAGE
Experimental: For each Dna2 construct to be tested for interaction with Ctf4CTD, a 25-ml E. coli Rosetta2 (DE3) culture overexpressing the GST-fusion construct was pelleted, resuspended in buffer (50 mM Tris [pH 7.0], 500 mM NaCl, 10% [w/v] glycerol, 1 mM DTT, and protease inhibitors) (Sigma), and lysed by sonication. Following centrifugation, the soluble extract was mixed with 50 μl of Glutathione Sepharose beads (GE Healthcare) pre-equilibrated in the same buffer, and incubated under rotation at 4°C for 1 hr. Unbound protein was removed by three consecutive washes with 1 ml of buffer, followed by three 1-ml washes with pull-down buffer (20 mM HEPES [pH 7.2], 150 mM NaCl, 5% [w/v] glycerol, 0.1% Igepal CA-630, 1 mM TCEP, and 1% BSA). Subsequently, 500 μl of purified Ctf4CTD protein at a concentration of 2 mg/ml was added to the Sepharose beads and binding was allowed to take place for an additional 1 hr at 4°C. The binding reaction was stopped by two consecutive washes with 1 ml of pull-down buffer and a final 1 ml wash with pull-down buffer without BSA. The Sepharose beads were mixed with SDS loading dye and Ctf4CTD interactions with the respective bait proteins were detected via SDS-PAGE.

| Substance | Kd [1] | Kd (result in words) [2] | Kd (result in words) ([2]; listed as Tof2) | direct binding to Ctf4 (in words) ([3]; listed as Tof2 CIP) | direct binding to Ctf4 (in words) ([3]; listed as peptide containing the Tof2 CIP-box) | hierarchy of affinities / occupancy of binding sites by CIP-box peptides ([3]; hierarchy of affinities said to be reflected in native MS occupancy, Figures S3B and S4A, Simon et al., 2014) | pull-down of Ctf4 (in words) [4] |
| --- | --- | --- | --- | --- | --- | --- | --- |
| CIP-box of Sld5: isolated CIP-box of Sld5, affinity quoted from Simon et al., 2014 (MDINIDDILAELDKETTAVD; fluorescein label (N-terminal probable); the exact peptide limits are in Simon et al. 2014) | 5 µM |  |  |  |  |  |  |
| SHAKDVKIQETIRKLNRFKPT [Tof2 peptide] |  | too weak to be quantified reliably | not determinable | binds directly to Ctf4 | could indeed bind directly to Ctf4 in vitro | Sld5 > Pol1 > Dna2 > Tof2 | could indeed bind directly to Ctf4 in vitro |
